# Like-named read-outs stand apart in the source and are kept apart here.
# Key:
# [1] = tested on: ZF4 (fibroblasts) cell line; assay: MTS assay (MTS/BCA multiplex), NAD(P)H metabolism; assay type: cell-based, zebrafish (Danio rerio); settings: Danio rerio, Fibroblast
# [2] = tested on: ZFL (hepatocytes) cell line; assay: cells; assay type: cell-based, zebrafish (Danio rerio); settings: Danio rerio, Hepatocyte
# [3] = tested on: ZF4 (fibroblasts) cell line; assay: BCA assay (MTS/BCA multiplex), protein amount; assay type: cell-based, zebrafish (Danio rerio); settings: Danio rerio, Fibroblast
# [4] = tested on: ZFL (hepatocytes) cell line; assay: cells; assay type: cell-based, zebrafish (Danio rerio); settings: Danio rerio, Hepatocyte; remark: listed apart in the source
# [5] = tested on: ZF4 (fibroblasts) cell line; assay: ATP assay (ATP/LDH multiplex), ATP metabolism; assay type: cell-based, zebrafish (Danio rerio); settings: Danio rerio, Fibroblast
# [6] = tested on: ZFL (hepatocytes) cell line; assay: cells; assay type: cell-based, zebrafish (Danio rerio); settings: Danio rerio, Hepatocyte; remark: listed apart in the source
# [7] = tested on: ZF4 (fibroblasts) cell line; assay: alamarBlue (AB) endpoint of AB/CFDA/NR multiplex, cellular respiration; assay type: cell-based, zebrafish (Danio rerio); settings: Danio rerio, Fibroblast
# [8] = tested on: ZFL (hepatocytes) cell line; assay: cells; assay type: cell-based, zebrafish (Danio rerio); settings: Danio rerio, Hepatocyte; remark: listed apart in the source
# [9] = tested on: ZF4 (fibroblasts) cell line; assay: CFDA endpoint of AB/CFDA/NR multiplex, membrane stability; assay type: cell-based, zebrafish (Danio rerio); settings: Danio rerio, Fibroblast
# [10] = tested on: ZFL (hepatocytes) cell line; assay: cells; assay type: cell-based, zebrafish (Danio rerio); settings: Danio rerio, Hepatocyte; remark: listed apart in the source
# [11] = tested on: ZF4 (fibroblasts) cell line; assay: Neutral red, absorbance (NRa), AB/CFDA/NR multiplex, lysosome stability; assay type: cell-based, zebrafish (Danio rerio); settings: Danio rerio, Fibroblast
# [12] = tested on: ZFL (hepatocytes) cell line; assay: cells; assay type: cell-based, zebrafish (Danio rerio); settings: Danio rerio, Hepatocyte; remark: listed apart in the source
# [13] = tested on: ZF4 (fibroblasts) cell line; assay: Neutral red, fluorescence (NRf), AB/CFDA/NR multiplex, lysosome stability; assay type: cell-based, zebrafish (Danio rerio); settings: Danio rerio, Fibroblast
# [14] = tested on: ZFL (hepatocytes) cell line; assay: cells; assay type: cell-based, zebrafish (Danio rerio); settings: Danio rerio, Hepatocyte; remark: listed apart in the source
# zebrafish embryos [15] = assay: animal or person; assay type: in vivo, zebrafish (Danio rerio); settings: for EC50: Danio rerio
# ZF4 and ZFL cell lines = assay: Cytotoxicity assays, all endpoints, both cell lines (mean/range); assay type: cell-based, zebrafish (Danio rerio); settings: 48 h
# zebrafish embryos [16] = tested on: zebrafish embryos; design: method as in earlier work; settings: nominal, cited from earlier work
# [17] = tested on: diverse mammalian cell assay results; design: method as in https://comptox.epa.gov/dashboard/; settings: COMPTOX; ref https://comptox.epa.gov/dashboard/; read-out: median AC50; cited from earlier work
# [18] = ref Comptox, PubChem or DrugBank; cited from earlier work
compound,measurement,setting,value
"CCCSc1ccc2nc(NC(=O)OC)[nH]c2c1 [Albendazole, albendazole]",IC50,"[1]; MTS - ZF4, log10 of IC50, read-out: LogIC50 (converted)",10100 nM
same,IC50,"[1]; MTS - ZF4, read-out: IC50",10100 nM
same,IC50,"[1]; ZF4, 48 h exposure, nominal, log10, read-out: logIC50 (log10 IC50;nom) MTS (converted)",10000 nM
same,IC50,"[1]; ZF4, 48 h exposure, nominal, read-out: IC50;nom MTS",10100 nM
same,IC50,"[2]; MTS - ZFL, log10 of IC50, read-out: LogIC50 (converted)",418 nM
same,IC50,"[2]; MTS - ZFL, read-out: IC50",418 nM
same,IC50,"[2]; ZFL, 48 h exposure, nominal, log10, read-out: logIC50 (log10 IC50;nom) MTS (converted)",417 nM
same,IC50,"[2]; ZFL, 48 h exposure, nominal, read-out: IC50;nom MTS",418 nM
same,IC50,"[3]; BCA - ZF4, log10 of IC50, read-out: LogIC50 (converted)",555 nM
same,IC50,"[3]; BCA - ZF4, read-out: IC50",555 nM
same,IC50,"[3]; ZF4, 48 h exposure, nominal, log10, read-out: logIC50 (log10 IC50;nom) BCA (converted)",550 nM
same,IC50,"[3]; ZF4, 48 h exposure, nominal, read-out: IC50;nom BCA",555 nM
same,IC50,"[4]; BCA - ZFL, log10 of IC50, read-out: LogIC50 (converted)",30.9 nM
same,IC50,"[4]; BCA - ZFL, read-out: IC50",30.9 nM
same,IC50,"[4]; ZFL, 48 h exposure, nominal, log10, read-out: logIC50 (log10 IC50;nom) BCA (converted)",30.9 nM
same,IC50,"[4]; ZFL, 48 h exposure, nominal, read-out: IC50;nom BCA",30.9 nM
same,IC50,"[5]; ATP - ZF4, log10 of IC50, read-out: LogIC50 (converted)",3250 nM
same,IC50,"[5]; ATP - ZF4, read-out: IC50",3250 nM
same,IC50,"[5]; ZF4, 48 h exposure, nominal, log10, read-out: logIC50 (log10 IC50;nom) ATP (converted)",3240 nM
same,IC50,"[5]; ZF4, 48 h exposure, nominal, read-out: IC50;nom ATP",3250 nM
same,IC50,"[6]; ATP - ZFL, log10 of IC50, read-out: LogIC50 (converted)",542 nM
same,IC50,"[6]; ATP - ZFL, read-out: IC50",542 nM
same,IC50,"[6]; ZFL, 48 h exposure, nominal, log10, read-out: logIC50 (log10 IC50;nom) ATP (converted)",537 nM
same,IC50,"[6]; ZFL, 48 h exposure, nominal, read-out: IC50;nom ATP",542 nM
same,IC50,"[7]; AB - ZF4, log10 of IC50, read-out: LogIC50 (converted)",7790 nM
same,IC50,"[7]; AB - ZF4, read-out: IC50",7790 nM
same,IC50,"[7]; ZF4, 48 h exposure, nominal, log10, read-out: logIC50 (log10 IC50;nom) AB (converted)",7760 nM
same,IC50,"[7]; ZF4, 48 h exposure, nominal, read-out: IC50;nom AB",7790 nM
same,IC50,"[8]; AB - ZFL, log10 of IC50, read-out: LogIC50 (converted)",3720 nM
same,IC50,"[8]; AB - ZFL, read-out: IC50",3720 nM
same,IC50,"[8]; ZFL, 48 h exposure, nominal, log10, read-out: logIC50 (log10 IC50;nom) AB (converted)",3720 nM
same,IC50,"[8]; ZFL, 48 h exposure, nominal, read-out: IC50;nom AB",3720 nM
same,IC50,"[9]; CFDA - ZF4, log10 of IC50, read-out: LogIC50 (converted)",75400 nM
same,IC50,"[9]; CFDA - ZF4, read-out: IC50",75400 nM
same,IC50,"[9]; ZF4, 48 h exposure, nominal, log10, read-out: logIC50 (log10 IC50;nom) CFDA (converted)",75900 nM
same,IC50,"[9]; ZF4, 48 h exposure, nominal, read-out: IC50;nom CFDA",75400 nM
same,IC50,"[10]; CFDA - ZFL, log10 of IC50, read-out: LogIC50 (converted)",221000 nM
same,IC50,"[10]; CFDA - ZFL, read-out: IC50",221000 nM
same,IC50,"[10]; ZFL, 48 h exposure, nominal, log10, read-out: logIC50 (log10 IC50;nom) CFDA (converted)",219000 nM
same,IC50,"[10]; ZFL, 48 h exposure, nominal, read-out: IC50;nom CFDA",221000 nM
same,IC50,"[11]; NR-abs - ZF4, log10 of IC50, read-out: LogIC50 (converted)",2360 nM
same,IC50,"[11]; NR-abs - ZF4, read-out: IC50",2360 nM
same,IC50,"[11]; ZF4, 48 h exposure, nominal, log10, read-out: logIC50 (log10 IC50;nom) NRa (converted)",2340 nM
same,IC50,"[11]; ZF4, 48 h exposure, nominal, read-out: IC50;nom NRa",2360 nM
same,IC50,"[11]; ZF4 cell line, NRa endpoint, nominal, read-out: IC50;nom",0.63 µg/mL
same,IC50,"[12]; NR-abs - ZFL, log10 of IC50, read-out: LogIC50 (converted)",904 nM
same,IC50,"[12]; NR-abs - ZFL, read-out: IC50",904 nM
same,IC50,"[12]; ZFL, 48 h exposure, nominal, log10, read-out: logIC50 (log10 IC50;nom) NRa (converted)",912 nM
same,IC50,"[12]; ZFL, 48 h exposure, nominal, read-out: IC50;nom NRa",904 nM
same,IC50,"[13]; NR-fluo - ZF4, log10 of IC50, read-out: LogIC50 (converted)",3610 nM
same,IC50,"[13]; NR-fluo - ZF4, read-out: IC50",3610 nM
same,IC50,"[13]; ZF4, 48 h exposure, nominal, log10, read-out: logIC50 (log10 IC50;nom) NRf (converted)",3630 nM
same,IC50,"[13]; ZF4, 48 h exposure, nominal, read-out: IC50;nom NRf",3610 nM
same,IC50,"[14]; NR-fluo - ZFL, log10 of IC50, read-out: LogIC50 (converted)",724 nM
same,IC50,"[14]; NR-fluo - ZFL, read-out: IC50",724 nM
same,IC50,"[14]; ZFL, 48 h exposure, nominal, log10, read-out: logIC50 (log10 IC50;nom) NRf (converted)",724 nM
same,IC50,"[14]; ZFL, 48 h exposure, nominal, read-out: IC50;nom NRf",724 nM
same,difference in toxicity (EC50;nom) between 48 hpf and 144 hpf,zebrafish embryos [15]; 48 hpf time point less sensitive than 144 hpf,approximately the same
same,log EC50;nom (mFET),"zebrafish embryos [15]; 48 hpf, nominal, log10, listed as Abz",-6.783 M
same,EC50,"zebrafish embryos [15]; 48 hpf, nominal, log10, read-out: log EC50;nom (mFET) (converted)",166 nM
same,EC50,"zebrafish embryos [15]; 48 hpf, nominal, read-out: EC50;nom (embryo)",0.05 µg/mL
same,EC50,zebrafish embryos [15]; read-out: EC50 48hpf,165 nM
same,EC50,zebrafish embryos [15]; read-out: EC50;nom (mFET),165 nM
same,IC50,"ZF4 and ZFL cell lines; Danio rerio, read-out: Mean log IC50nom, mean of all cytotoxicity endpoints (without LDH) in ZF4 and ZFL, 48 h, log10 (converted)",2510 nM
same,Mean log IC50nom,"ZF4 and ZFL cell lines; mean of all cytotoxicity endpoints (without LDH) in ZF4 and ZFL, log10, listed as Abz",-5.604 M
same,EC50,"zebrafish embryos [16]; 144 hpf, converted",158 nM
same,logEC50 144 hpf,zebrafish embryos [16]; log10,-6.8 M
same,AC50,[17],410 nM
same,BCF,[18],41.2
same,Physiological charge,[18],0
same,logKoa,[18],9.35
same,logKow,[18],3.07
same,pKa (Strongest Acidic),[18],9.51
same,pKa (Strongest Basic),[18],4.27
same,w_solubility (water solubility),[18],85.2 µM

# Reference: paper PMC7872314, “Modeling Bioavailable Concentrations in Zebrafish Cell Lines and Embryos Increases the Correlation of Toxicity Potencies across Test Systems” (Environmental Science & Technology, 2020)
